This note sets out measurements from US11591355B2 (Peloton Therapeutics, Inc., priority 2017, dated 2023).

The target in one test is T1, Human CD73 (Homo sapiens, UniProt P21589).
T1 construct: purchased R&D Systems; host or cells: CHO cells
T1 sequence (P21589 27-549): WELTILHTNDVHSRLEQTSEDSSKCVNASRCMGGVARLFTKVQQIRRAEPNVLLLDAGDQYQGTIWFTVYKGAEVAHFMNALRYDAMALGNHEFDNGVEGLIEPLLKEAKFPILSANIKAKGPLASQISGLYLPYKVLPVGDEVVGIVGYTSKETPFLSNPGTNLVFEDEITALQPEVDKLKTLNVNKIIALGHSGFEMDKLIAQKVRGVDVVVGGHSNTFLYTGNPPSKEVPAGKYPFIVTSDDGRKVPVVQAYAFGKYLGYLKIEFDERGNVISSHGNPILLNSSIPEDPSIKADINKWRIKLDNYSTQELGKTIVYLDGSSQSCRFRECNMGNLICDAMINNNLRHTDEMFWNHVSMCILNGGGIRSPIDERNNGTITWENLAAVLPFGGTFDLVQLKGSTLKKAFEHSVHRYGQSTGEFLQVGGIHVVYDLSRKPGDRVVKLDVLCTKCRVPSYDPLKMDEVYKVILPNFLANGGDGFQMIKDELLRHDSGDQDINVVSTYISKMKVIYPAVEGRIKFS
The test is described as follows: CD73 Enzyme Assay. The test is classed as biochemical.
Details: not given
As usually defined, the IC50 is the concentration at which inhibition is half-maximal. Take `CCOP(=O)(COC[C@H]1O[C@@H](n2ccc3c(NC4CCCC4)nc(Cl)nc32)[C@H](O)[C@@H]1O)OCC` [Compound 185]: the IC50 was greater than 1000 nM.

Staying with this test, now noted: 0.25 nM hCD73, 25 μM AMP, kinetic read at 360 nm; read-out: CD73 Enzyme Assay IC50.
With `CS(=O)(=O)c1cccc(CNc2ncnc3c2ncn3[C@@H]2O[C@H](COCP(=O)(O)O)[C@@H](O)[C@H]2O)c1` [Compound 66], the IC50 is greater than 1000 nM.

For the compound `CNc1nc(C#N)nc2c1ccn2[C@@H]1O[C@H](COCP(=O)(O)O)[C@@H](O)[C@H]1O` [Compound 118, [(2R,3S,4R,5R)-5-[2-cyano-4-(methyl-amino)pyrrolo[2,3-d]-pyrimidin-7-yl]-3,4-dihydroxy-tetrahydro-furan-2-yl]methoxy-methylphosphonic acid], the IC50 lay within 100 to 1000 nM.

On to `O=P(O)(O)C(SC[C@H]1O[C@@H](n2cnc3c(NCc4ccccc4)ncnc32)[C@H](O)[C@@H]1O)c1ccccc1` (stereo partly drawn) [Compound 149, [[(2S,3S,5R)-5-[6-(benzylamino)purin-9-yl]-3,4-dihydroxy-tetrahydrofuran-2-yl]methylsulfanyl-phenylmethyl]phos-phonic acid], for which the IC50 was greater than 1000 nM. For the compound `O=P(O)(O)C(c1ccccc1)S(=O)(=O)C[C@H]1O[C@@H](n2cnc3c(NCc4ccccc4)ncnc32)[C@H](O)[C@@H]1O` (stereo partly drawn) [Compound 150, [[(2S,3S,5R)-5-[6-(benzylamino)purin-9-yl]-3,4-dihydroxy-tetrahydrofuran-2-yl]methylsulfonyl-phenylmethyl]phos-phonic acid], the IC50 is greater than 1000 nM. `O=P(O)(O)CSC[C@H]1O[C@@H](n2cnc3c(NCc4ccccc4)ncnc32)[C@H](O)[C@@H]1O` [Compound 151, [(2S,3S,5R)-5-[6-(benzylamino)purin-9-yl]-3,4-dihydroxy-tetrahydrofuran-2-yl]methylsulfanyl-methylphosphonic acid]: the IC50 was greater than 1000 nM. Turning to `CC(C)(C)C(=O)OCOP(=O)(CS(=O)(=O)C[C@H]1O[C@@H](n2ccc3c(NC4CCCC4)nc(Cl)nc32)[C@H](O)[C@@H]1O)OCOC(=O)C(C)(C)C` [Compound 165, (((((((2S,3S,4R,5R)-5-(2-chloro-4-(cyclopentylamino)-7H-pyrrolo[2,3-d]pyrimidin-7-yl)-3,4-dihydroxytetrahydrofuran-2-yl)methyl)sulfonyl)methyl)phosphoryl)bis(oxy))bis(methylene) bis(2,2-dimethylpropanoate)], the IC50 fell in the range of 100 to 1000 nM.

As for `CC(C)(C)C(=O)OCOP(=O)(C[S+]([O-])C[C@H]1O[C@@H](n2ccc3c(NC4CCCC4)nc(Cl)nc32)[C@H](O)[C@@H]1O)OCOC(=O)C(C)(C)C` (stereo partly drawn) [Compound 166, [[(2S,3S,4R,5R)-5-[2-chloro-4-(cyclopentyl-amino)pyrrolo[2,3-d]-pyrimidin-7-yl]-3,4-dihydroxy-tetrahydro-furan-2-yl]methyl-sulfinylmethyl-(2,2-dimethylpropanoyloxy-methoxy)phosphoryl]-oxymethyl 2,2-dimethylpropanoate], the IC50 is greater than 1000 nM. `CC(C)OC(=O)OCOP(=O)(COC[C@H]1O[C@@H](n2ccc3c(N4CC5CCCC5C4)nc(Cl)nc32)[C@H](O)[C@@H]1O)OCOC(=O)OC(C)C` (stereo partly drawn) [Compound 208, [[(2R,3S,4R,5R)-5-[4-(3,3a,4,5,6,6a-hexa-hydro-1H-cyclopenta-[c]pyrrol-2-yl)-2-chloro-pyrrolo[2,3-d]-pyrimidin-7-yl]-3,4-dihydroxy-tetrahydro-furan-2-yl]methoxy-methyl-(isopropoxy-carbonyloxymethoxy)-phosphorl]oxymethyl isopropyl carbonate]: the IC50 is greater than 1000 nM. As to `N#Cc1nc(NC2CCCC2)c2c(C#N)cn([C@@H]3O[C@H](COCP(=O)(O)O)[C@@H](O)[C@H]3O)c2n1` [Compound 210, [(2R,3S,4R,5R)-5-[2,5-dicyano-4-(cyclopentyl-amino)pyrrolo[2,3-d]-pyrimidin-7-yl]-3,4-dihydroxy-tetrahydro-furan-2-yl]methoxy-methylphosphonic acid], the IC50 lay in the range of 100 to 1000 nM.

Staying with this test, now noted: read-out: CD73 Enzyme Assay IC50.
Turning to `O=P(O)(O)CS(=O)(=O)C[C@H]1O[C@@H](n2cnc3c(NCc4ccccc4)ncnc32)[C@H](O)[C@@H]1O` [Compound 148], the IC50 was greater than 1000 nM.
